Assay results reported in patent publication US9302999B2, “Substituted triazoles as herbicides” (E. I. DU PONT DE NEMOURS AND COMPANY, priority 2012, dated 2016).

How the values were obtained:
Format in all cases: in vivo
[1] = system: pigweed (Amaranthus retroflexus); test: Test A pre-/postemergence: pigweed; conditions: for Pigweed plant response rating: Postemergence; for Plant response rating, Pigweed: Preemergence
Summary of the method: (§1)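 Plants in loam–sand blend were treated with test chemicals in non-phytotoxic solvent with surfactant, either as preemergence directed soil spray or postemergence at 2–10 cm, one- to two-leaf stage. After about ten days in greenhouse, injury was rated visually against untreated controls on a 0–100 scale (100 = complete control).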

[2] = system: foxtail, giant (giant foxtail, Setaria faberii); test: Test A pre-/postemergence: foxtail, giant; conditions: for Foxtail, Giant plant response rating: Postemergence; for Plant response rating, Foxtail, Giant: Preemergence
Summary of the method: as §1

[3] = system: barnyardgrass (Echinochloa crus-galli); test: Test C flooded paddy test: barnyardgrass; conditions: scale 0 to 100 (0 no effect, 100 complete control)
Summary of the method: (§2)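 Plants at 2-leaf stage in pots flooded 3 cm above soil; compounds applied directly into the paddy water, depth maintained. Visual rating against controls after 13–15 days in greenhouse, scale 0 (no effect) to 100 (complete control).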

rice (Oryza sativa) = test: Test C flooded paddy test: rice; conditions: scale 0 to 100 (0 no effect, 100 complete control)
Summary of the method: as §2

[4] = system: sedge, umbrella (small-flower umbrella sedge, Cyperus difformis); test: Test C flooded paddy test: sedge, umbrella; conditions: scale 0 to 100 (0 no effect, 100 complete control)
Summary of the method: as §2

[5] = system: velvetleaf (Abutilon theophrasti); test: Test A pre-/postemergence: velvetleaf; conditions: for Velvetleaf plant response rating: Postemergence; for Plant response rating, Velvetleaf: Preemergence
Summary of the method: as §1

[6] = system: barnyardgrass (Echinochloa crus-galli); test: Test A pre-/postemergence: barnyardgrass; conditions: for Barnyardgrass plant response rating: Postemergence; for Plant response rating, Barnyardgrass: Preemergence
Summary of the method: as §1

[7] = system: ducksalad (Heteranthera limosa); test: Test C flooded paddy test: ducksalad; conditions: scale 0 to 100 (0 no effect, 100 complete control)
Summary of the method: as §2

[8] = system: crabgrass, large (large crabgrass, Digitaria sanguinalis); test: Test A pre-/postemergence: crabgrass, large; conditions: for Crabgrass, Large plant response rating: Postemergence; for Plant response rating, Crabgrass, Large: Preemergence
Summary of the method: as §1

[9] = system: wheat (Triticum aestivum); test: Test A pre-/postemergence: wheat; conditions: for Wheat plant response rating: Postemergence; for Plant response rating, Wheat: Preemergence
Summary of the method: as §1

[10] = system: morningglory (Ipomoea spp.); test: Test A pre-/postemergence: morningglory; conditions: for Morningglory plant response rating: Postemergence; for Plant response rating, Morningglory: Preemergence
Summary of the method: as §1

corn (Zea mays) = test: Test A pre-/postemergence: corn; conditions: for Corn plant response rating: Postemergence; for Plant response rating, Corn: Preemergence
Summary of the method: as §1

[11] = 125 g ai/ha, 0 to 100 scale, 0 is no effect, 100 is complete control
[12] = 500 g ai/ha, visual rating on 0 to 100 scale (0 no effect, 100 complete control), approximately ten days
[13] = 125 g ai/ha, 0 to 100 scale (0 no effect, 100 complete control)
[14] = 500 g ai/ha, 0 to 100 scale, 0 is no effect, 100 is complete control
[15] = Flood (flooded paddy test), 62 g ai/ha, visual rating after 13 to 15 days
[16] = Flood (flooded paddy test), 125 g ai/ha, visual rating after 13 to 15 days
[17] = Flood (flooded paddy test), 250 g ai/ha, visual rating after 13 to 15 days

Cc1nn(-c2cccc(Cl)c2)nc1C(=O)c1cccc(C(F)(F)F)c1 [Compound 76]
Pigweed plant response rating [1, 11]: 50
Pigweed plant response rating [1, 12]: 60
Plant response rating, Pigweed [1, 13]: 0
Plant response rating, Pigweed [1, 14]: 20
Foxtail, Giant plant response rating [2, 11]: 10
Foxtail, Giant plant response rating [2, 12]: 20
Plant response rating, Foxtail, Giant [2, 13]: 10
Plant response rating, Foxtail, Giant [2, 14]: 80
Plant response rating, Barnyardgrass [3, 15]: 0
Plant response rating, Barnyardgrass [3, 16]: 0
Plant response rating, Barnyardgrass [3, 17]: 0
Plant response rating, Barnyardgrass ([3]; Flood, 31 g ai/ha): 0
Plant response rating, Rice (rice (Oryza sativa); [15]): 0
Plant response rating, Rice (rice (Oryza sativa); [16]): 0
Plant response rating, Rice (rice (Oryza sativa); [17]): 0
Plant response rating, Rice (rice (Oryza sativa); Flood, 31 g ai/ha): 0
Plant response rating, Sedge, Umbrella [4, 15]: 0
Plant response rating, Sedge, Umbrella [4, 16]: 0
Plant response rating, Sedge, Umbrella [4, 17]: 0
Plant response rating, Sedge, Umbrella ([4]; Flood, 31 g ai/ha): 0
Velvetleaf plant response rating [5, 11]: 0
Velvetleaf plant response rating [5, 12]: 10
Plant response rating, Velvetleaf [5, 13]: 0
Plant response rating, Velvetleaf [5, 14]: 0
Barnyardgrass plant response rating [6, 11]: 0
Barnyardgrass plant response rating [6, 12]: 20
Plant response rating, Barnyardgrass [6, 13]: 0
Plant response rating, Barnyardgrass [6, 14]: 0
Plant response rating, Ducksalad [7, 15]: 0
Plant response rating, Ducksalad [7, 16]: 0
Plant response rating, Ducksalad [7, 17]: 0
Plant response rating, Ducksalad ([7]; Flood, 31 g ai/ha): 0
Crabgrass, Large plant response rating [8, 11]: 10
Crabgrass, Large plant response rating [8, 12]: 30
Plant response rating, Crabgrass, Large [8, 13]: 10
Plant response rating, Crabgrass, Large [8, 14]: 40
Wheat plant response rating [9, 11]: 0
Wheat plant response rating [9, 12]: 20
Plant response rating, Wheat [9, 13]: 0
Plant response rating, Wheat [9, 14]: 0
Morningglory plant response rating [10, 11]: 10
Morningglory plant response rating [10, 12]: 20
Plant response rating, Morningglory [10, 13]: 0
Plant response rating, Morningglory [10, 14]: 0
Corn plant response rating (corn (Zea mays); [11]): 10
Corn plant response rating (corn (Zea mays); [12]): 20
Plant response rating, Corn (corn (Zea mays); [13]): 0
Plant response rating, Corn (corn (Zea mays); [14]): 0

Cc1nn(-c2ccc(C(F)(F)F)cc2)nc1Oc1ccccc1Cl [Compound 82]
Pigweed plant response rating [1, 11]: 0
Pigweed plant response rating [1, 12]: 0
Plant response rating, Pigweed [1, 13]: 0
Plant response rating, Pigweed [1, 14]: 0
Foxtail, Giant plant response rating [2, 11]: 0
Foxtail, Giant plant response rating [2, 12]: 0
Plant response rating, Foxtail, Giant [2, 13]: 0
Plant response rating, Foxtail, Giant [2, 14]: 0
Plant response rating, Barnyardgrass [3, 16]: 0
Plant response rating, Barnyardgrass [3, 17]: 0
Plant response rating, Barnyardgrass ([3]; Flood, 31 g ai/ha): 0
Plant response rating, Barnyardgrass ([3]; Flood, 62 g ai/ha): 0
Plant response rating, Rice (rice (Oryza sativa); [16]): 0
Plant response rating, Rice (rice (Oryza sativa); [17]): 0
Plant response rating, Rice (rice (Oryza sativa); Flood, 31 g ai/ha): 0
Plant response rating, Rice (rice (Oryza sativa); Flood, 62 g ai/ha): 0
Plant response rating, Sedge, Umbrella [4, 16]: 0
Plant response rating, Sedge, Umbrella [4, 17]: 0
Plant response rating, Sedge, Umbrella ([4]; Flood, 31 g ai/ha): 0
Plant response rating, Sedge, Umbrella ([4]; Flood, 62 g ai/ha): 0
Velvetleaf plant response rating [5, 11]: 0
Velvetleaf plant response rating [5, 12]: 0
Plant response rating, Velvetleaf [5, 13]: 0
Plant response rating, Velvetleaf [5, 14]: 0
Barnyardgrass plant response rating [6, 11]: 0
Barnyardgrass plant response rating [6, 12]: 0
Plant response rating, Barnyardgrass [6, 13]: 0
Plant response rating, Barnyardgrass [6, 14]: 0
Plant response rating, Ducksalad [7, 16]: 0
Plant response rating, Ducksalad [7, 17]: 0
Plant response rating, Ducksalad ([7]; Flood, 31 g ai/ha): 0
Plant response rating, Ducksalad ([7]; Flood, 62 g ai/ha): 0
Crabgrass, Large plant response rating [8, 11]: 0
Crabgrass, Large plant response rating [8, 12]: 0
Plant response rating, Crabgrass, Large [8, 13]: 0
Plant response rating, Crabgrass, Large [8, 14]: 0
Wheat plant response rating [9, 11]: 0
Wheat plant response rating [9, 12]: 0
Plant response rating, Wheat [9, 13]: 0
Plant response rating, Wheat [9, 14]: 0
Morningglory plant response rating [10, 11]: 0
Morningglory plant response rating [10, 12]: 0
Plant response rating, Morningglory [10, 13]: 0
Plant response rating, Morningglory [10, 14]: 0
Corn plant response rating (corn (Zea mays); [11]): 0
Corn plant response rating (corn (Zea mays); [12]): 0
Plant response rating, Corn (corn (Zea mays); [13]): 0
Plant response rating, Corn (corn (Zea mays); [14]): 0

Cc1nn(-c2ccc(C(F)(F)F)cc2)nc1Oc1ccc(C(F)(F)F)cc1 [Compound 83]
Pigweed plant response rating [1, 11]: 0
Pigweed plant response rating [1, 12]: 0
Plant response rating, Pigweed [1, 13]: 0
Plant response rating, Pigweed [1, 14]: 0
Foxtail, Giant plant response rating [2, 11]: 0
Foxtail, Giant plant response rating [2, 12]: 0
Plant response rating, Foxtail, Giant [2, 13]: 0
Plant response rating, Foxtail, Giant [2, 14]: 0
Plant response rating, Barnyardgrass [3, 16]: 0
Plant response rating, Barnyardgrass [3, 17]: 0
Plant response rating, Barnyardgrass ([3]; Flood, 31 g ai/ha): 0
Plant response rating, Barnyardgrass ([3]; Flood, 62 g ai/ha): 0
Plant response rating, Rice (rice (Oryza sativa); [16]): 20
Plant response rating, Rice (rice (Oryza sativa); [17]): 25
Plant response rating, Rice (rice (Oryza sativa); Flood, 31 g ai/ha): 10
Plant response rating, Rice (rice (Oryza sativa); Flood, 62 g ai/ha): 20
Plant response rating, Sedge, Umbrella [4, 16]: 20
Plant response rating, Sedge, Umbrella [4, 17]: 30
Plant response rating, Sedge, Umbrella ([4]; Flood, 31 g ai/ha): 10
Plant response rating, Sedge, Umbrella ([4]; Flood, 62 g ai/ha): 20
Velvetleaf plant response rating [5, 11]: 0
Velvetleaf plant response rating [5, 12]: 0
Plant response rating, Velvetleaf [5, 13]: 0
Plant response rating, Velvetleaf [5, 14]: 0
Barnyardgrass plant response rating [6, 11]: 0
Barnyardgrass plant response rating [6, 12]: 0
Plant response rating, Barnyardgrass [6, 13]: 0
Plant response rating, Barnyardgrass [6, 14]: 0
Plant response rating, Ducksalad [7, 16]: 20
Plant response rating, Ducksalad [7, 17]: 30
Plant response rating, Ducksalad ([7]; Flood, 31 g ai/ha): 0
Plant response rating, Ducksalad ([7]; Flood, 62 g ai/ha): 20
Crabgrass, Large plant response rating [8, 11]: 0
Crabgrass, Large plant response rating [8, 12]: 0
Plant response rating, Crabgrass, Large [8, 13]: 0
Plant response rating, Crabgrass, Large [8, 14]: 0
Wheat plant response rating [9, 11]: 0
Wheat plant response rating [9, 12]: 0
Plant response rating, Wheat [9, 13]: 0
Plant response rating, Wheat [9, 14]: 0
Morningglory plant response rating [10, 11]: 0
Morningglory plant response rating [10, 12]: 0
Plant response rating, Morningglory [10, 13]: 0
Plant response rating, Morningglory [10, 14]: 0
Corn plant response rating (corn (Zea mays); [11]): 0
Corn plant response rating (corn (Zea mays); [12]): 0
Plant response rating, Corn (corn (Zea mays); [13]): 0
Plant response rating, Corn (corn (Zea mays); [14]): 0
